Where two headings read alike, the source gives them in different places.
Key:
[1] = test system: Saccharomyces cerevisiae BY4743; test: 24 hour survival (CFU) at low and high cell density; type: cell-based
Experimental: Saccharomyces cerevisiae BY4743 (ATCC 201390) was plated from a freezer vial onto YPD agar (Teknova, Hollister, Calif.; Cat. #Y1000) and incubated overnight at 30° C. Cells from the YPD plate were inoculated into a 25 ml pre-culture of YPD broth (Teknova; Cat. #Y5000) with an initial OD600 of 0.06 to 0.08. The pre-culture was grown for 7 hours in an aerobic shaker at 30° C. An aliquot of the pre-culture was inoculated into 200 ml of YPD broth, with an initial OD600 of 0.06 to 0.08, and this culture was incubated with aeration at 30° C. for approximately 17 hours. The optical density of the culture was measured, the culture was centrifuged and the cells were resuspended to yield an OD600 of 5 in fresh YPD broth. This is referred to as a high cell density (HCD) culture. […] This is referred to as a low the cell density (LCD) culture. These cultures were incubated at 30° C. with shaking for 30 minutes for an acclimation period. At the end of the 30 minute acclimation period, the OD600 was measured. 5 ml of low or high cell density culture was dispensed to 15 ml conical tubes which contained different concentrations of the alcohol to be tested. A control tube included no alcohol. The tubes were placed in a rotary drum at 30° C. and incubated for 24 hours. The time of addition of cells was referred to as “time 0”. […] Colony forming units (CFUs) were determined on YPD plates at time 0 for the control and at 24 hours for each of the cultures, including the control culture, using standard microbiological methods. […] Colonies were counted after 48 hours, and CFUs/ml were calculated. At time 0, the low cell density cultures had about 4.8×10^5 CFUs/ml, and the high cell density cultures had about 5.4×10^7 CFUs/ml.

[2] = test system: Yeast cultures; settings: 1% butanol
Experimental: Survival was measured by assaying the number of colony forming units (CFU), which is a measure of live cells.

[3] = 2.0% (w/v) alcohol, high cell density
[4] = 2.0% (w/v) alcohol, low cell density

Q: Which results are given for `CCO` [Ethanol, ethanol]?
A: Percent Survival HCD (%) [1, 3]: 62.5%; Percent Survival LCD (%) [1, 4]: 100.0%; Percent Survival HCD (%) ([1]; 4% (w/v) alcohol, high cell density): 50.2%; Percent Survival LCD (%) ([1]; 4% (w/v) alcohol, low cell density): 100.0%; Percent Survival HCD (%) ([1]; 5% (w/v) alcohol, high cell density): 38.9%; Percent Survival LCD (%) ([1]; 5% (w/v) alcohol, low cell density): 25.3%

Q: What does the source list for `CCCCO` [1-Butanol, 1-butanol]?
A: Percent Survival HCD (%) ([1]; 1.0% (w/v) alcohol, high cell density OD600 5): 72.2%; Percent Survival LCD (%) ([1]; 1.0% (w/v) alcohol, low cell density OD600 0.05): 1.3%; Percent Survival HCD (%) ([1]; 1.5% (w/v) alcohol, high cell density): 57.3%; Percent Survival LCD (%) ([1]; 1.5% (w/v) alcohol, low cell density): 0.4%; Percent Survival HCD (%) [1, 3]: 3.6%; Percent Survival LCD (%) [1, 4]: 0.1%

Q: What does the source list for `CCC(C)O` (centres unmarked) [2-Butanol, 2-butanol]?
A: Percent Survival HCD (%) [1, 3]: 27.6%; Percent Survival LCD (%) [1, 4]: 0.3%; Percent Survival HCD (%) ([1]; 3% (w/v) alcohol, high cell density): 18.9%; Percent Survival LCD (%) ([1]; 3% (w/v) alcohol, low cell density): 0.1%; Percent Survival HCD (%) ([1]; 3.5% (w/v) alcohol, high cell density): <0.001%; Percent Survival LCD (%) ([1]; 3.5% (w/v) alcohol, low cell density): <0.001%

Q: For butanol, which “survival rate compared to control culture without butanol” value ([2]; high cell density cultures) is on record?
A: Its value is “at least 40%”.

Q: And the “survival rate compared to control culture without butanol” value ([2]; low cell density cultures (100-fold fewer cells))?
A: Its value is “up to 13%”.

Reference: US20120149080A1, “YEAST PRODUCTION CULTURE FOR THE PRODUCTION OF BUTANOL” (Butamax(TM) Advanced Biofuels LLC, priority 2010, published 2012)
